Data on 3 molecules can be found in patent publication US20240058321A1, “FARNESYL-TRANSFERASE INHIBITORS AND KRAS INHIBITORS FOR TREATING KRAS MUTANT CANCERS” (SEMMELWEIS EGYETEM, priority 2021, published 2024).

Where two headings read alike, the source gives them in different places.

The subject of test [1] is SW1573. The experiment in a line: 2D combinational test (SRB growth inhibition, six days). As to conditions: Homo sapiens.
Description: (§2) H358, SW1573, H1792, MIAPACA2, SW1990, SNUC2B, SW480, A549 and HCT116 were purchased from ATCC, while SW48 KRAS G12C colorectal cell line and H838 KRAS G12D lung cell line was bought from Horizon Discovery Ltd. Most of the cell lines were heterozygous for mutant KRAS, as in human cases used to occur, but we also used cell lines with homozygous mutant KRAS.
(§3) Cells were cultured in DMEM (Lonza, Switzerland; with 4500 mg/dm3 glucose, pyruvate and L-glutamine) supplemented with 10% fetal calf serum (EuroClone) and 1% penicillin-streptomycin-amphotericin (Lonza) in tissue culture flasks in a humidified 5% CO2 atmosphere at 37° C.
(§4) For in vitro experiments drugs were dissolved in DMSO in 10 mM stock concentration and stored at −80° C.
(§5) Cells that reached 70-80% confluency were trypsinized and counted using Luna II Automated Cell Counter. Cells were plated in 5000-10000 cells/well density (depending on the growth rate of the given cell line) on a 24 well plate. Next day the medium was replaced to fresh medium supplemented with the inhibitors. After 6 days, the wells were washed with DPBS (Lonza) and the cells were fixed by 10% trichloroacetic acid and stained with Sulphorodamine-B (SRB) (Sigma) dye for 15 minutes. Plates then were repeatedly washed with 1% acetic acid to remove excess dye. Protein-bound SRB was then dissolved in 10 mM Tris buffer (pH=7,4) and OD was measured at 570 nm using a microplate reader (EL800, BioTec Instruments, Winooski, VT). OD values were normalized to control. Transformed data then were used to calculate combinational index (CI) values using Compusyn software as described in https://www.combosyn.com/index.html. Data shown are results of three independent experiments.
Test [2] deals with PF97. The description is as above. As to conditions: Homo sapiens, 144 h.
Description: as §2, §3, §4, §5
For test [3], the system named is MIAPACA2. The description is as above. As to conditions: Homo sapiens, MIA PaCa-2, 144 h.
Test [4] concerns SW480. The description is as above. The conditions noted are these: Homo sapiens. In kind it is cell-based, human. The source says:
(§1) OD values were normalized to control. […] Data shown are results of three independent experiments.

Test [5] concerns SW1990. Described as above. In kind it is cell-based, human. As to conditions: Homo sapiens, SW1990, SW1990, read-out: Relative cell viability (MEAN).
Description: as §1

In test [6] the test system is cancer patients. As to conditions: patients, cited from earlier work.

Take `C=CC(=O)N1CCN(c2nc(=O)n(-c3c(C)ccnc3C(C)C)c3nc(-c4c(O)cccc4F)c(F)cc23)[C@@H](C)C1` [AMG-510]: the viability at 0.01 µM in test [1] (SW1573, read-out: Viability data (MEAN), SW1573, BPH1222 0 μM + AMG-510 10 nM) worked out at 99.5%; in test [1] (SW1573, read-out: Viability data (MEAN), SW1573, SIMVASTATIN 0 μM + AMG-510 10 nM), 96.6%. Besides, the viability at 0.025 µM in test [1] (SW1573, read-out: Viability data (MEAN), SW1573, BPH1222 0 μM + AMG-510 25 nM) stood at 99.8%; in test [1] (SW1573, read-out: Viability data (MEAN), SW1573, SIMVASTATIN 0 μM + AMG-510 25 nM), 92.5%. The viability at 0.05 µM in test [1] (SW1573, read-out: Viability data (MEAN), SW1573, BPH1222 0 μM + AMG-510 50 nM) was determined as 97.7%; in test [1] (SW1573, read-out: Viability data (MEAN), SW1573, SIMVASTATIN 0 μM + AMG-510 50 nM), 89.9%.

Regarding `C=C(F)C(=O)N1CCN(c2nc(OC[C@@H]3CCCN3C)nc3c2CCN(c2cccc4cccc(Cl)c24)C3)C[C@@H]1CC#N` [adagrasib], the viability at 0.025 µM in test [2] (read-out: Relative cell viability, 6/A1, 25 nM adagrasib + 0 nM tipifarnib) amounted to 58.2%; in test [1] (SW1573, 144 h, read-out: Relative cell viability, 6/A3, SW1573, 25 nM adagrasib + 0 nM tipifarnib, six days) it was 77.3%; in test [1] (SW1573, 144 h, read-out: Relative cell viability, 7/A3, SW1573, 25 nM adagrasib + 0 nM lonafarnib, six days), 79.4%; in test [3] (read-out: Relative cell viability, 6/A2, 25 nM adagrasib + 0 nM tipifarnib) it was 50.4%; in test [3] (read-out: Relative cell viability, 7/A2, 25 nM adagrasib + 0 nM lonafarnib) it was 50.8%. The viability at 0.1 µM in test [2] (read-out: Relative cell viability, 6/A1, 100 nM adagrasib + 0 nM tipifarnib) amounted to 46.7%; in test [2] (read-out: Relative cell viability, 7/A1, 100 nM adagrasib + 0 nM lonafarnib), 29.2%; in test [1] (SW1573, 144 h, read-out: Relative cell viability, 6/A3, SW1573, 100 nM adagrasib + 0 nM tipifarnib, six days), 67.2%; in test [1] (SW1573, 144 h, read-out: Relative cell viability, 7/A3, SW1573, 100 nM adagrasib + 0 nM lonafarnib, six days) it was 72.5%; in test [3] (read-out: Relative cell viability, 6/A2, 100 nM adagrasib + 0 nM tipifarnib) it was 28.9%; in test [3] (read-out: Relative cell viability, 7/A2, 100 nM adagrasib + 0 nM lonafarnib), 27.3%. Moreover, the viability at 0.5 µM was 45.9% in test [2] (read-out: Relative cell viability, 6/A1, 500 nM adagrasib + 0 nM tipifarnib) and 19.4% in test [2] (read-out: Relative cell viability, 7/A1, 500 nM adagrasib + 0 nM lonafarnib). The viability at 0.01 µM was 52.5% in test [2] (read-out: Relative cell viability, 7/A1, 10 nM adagrasib + 0 nM lonafarnib); 85.3% in test [1] (SW1573, 144 h, read-out: Relative cell viability, 6/A3, SW1573, 10 nM adagrasib + 0 nM tipifarnib, six days); 86.6% in test [1] (SW1573, 144 h, read-out: Relative cell viability, 7/A3, SW1573, 10 nM adagrasib + 0 nM lonafarnib, six days). The viability at 0.05 µM was determined as 38.3% in test [3] (read-out: Relative cell viability, 6/A2, 50 nM adagrasib + 0 nM tipifarnib) and 37.5% in test [3] (read-out: Relative cell viability, 7/A2, 50 nM adagrasib + 0 nM lonafarnib).

Regarding `NC(=O)N1CCC(CC(=O)N2CCC([C@H]3c4ncc(Br)cc4CCc4cc(Cl)cc(Br)c43)CC2)CC1` [lonafarnib], the viability at 0.5 µM in test [4] (500 nM lonafarnib + 0 μM BI2852, read-out: Relative cell viability (MEAN)) amounted to 72%. Also, the viability at 1 µM in test [4] (1000 nM lonafarnib + 0 μM BI2852, read-out: Relative cell viability (MEAN)) came to 63.9%; in test [5] (1000 nM lonafarnib + 0 nM MRTX1133), 64.8%. Moreover, the viability at 2 µM is 55.7% in test [4] (2000 nM lonafarnib + 0 μM BI2852, read-out: Relative cell viability (MEAN)) and 57.6% in test [5] (2000 nM lonafarnib + 0 nM MRTX1133). For the same molecule, the viability at 0.2 µM in test [5] (200 nM lonafarnib + 0 nM MRTX1133) is 83.1%. Further, in test [6] (colorectal cancer), the Objective responses result was “no objective responses”. For the same molecule, in test [6] (ovarian cancer, in combination with chemotherapy), the “Progression-free or overall survival” value is on record as “does not improve”.
